{"source": "patent US20100029577A1", "about": "“Chiral separation, characterization and biological action of optically active isomers of digoxin” (priority 2008, published 2010)", "key": {"[1]": {"system": "gram-negative and gram-positive bacteria", "conditions": "against both gram-negative and gram-positive bacteria; cited from earlier work"}, "[2]": {"system": "AV node conduction and cardiac contractibility", "test": "Effect on PR interval (AV node conduction) and cardiac contractibility in anesthetized guinea pig, continuous IV infusion", "assay_type": "in vivo", "conditions": "infused at 6 μg/kg/min continuously IV", "protocol": "The guinea pig or rat is anesthetized with pentobarbital at 40 mg/kg IP, then-connected to an EKG recorder. The animal is then placed on a small animal respirator. Aseptic surgical instruments are soaked in ethanol and then flamed. An incision is made in the chest wall to open the chest. A Walton Brody stain gauge arch is sutured to the right ventricle to measure contractile changes. The refractoriness of the AV node is determined by measuring the PR-interval on the surface EKG. Graphs can be created from the data displaying the dose related change in the PR interval to the dose related contractile augmentation. Digoxin or chiral isolates are infused through the jugular vein at concentrations (from 0.1 μM and then to 10 μM) at a constant rate by infusion pump, to determine the differential effects on the AV node and cardiac contractibility. The infusions are continued to a 50% level augmentation in contractibility or the development of ventricular tachycardia. To maintain a consistent level of anesthesia, pentobarbital 20 mg/kg IP or 10 mg/kg IV for more immediate action at 30-minute intervals may be administered.\nThe effect of digoxin and one of the two chiral isomers was evaluated in the guinea pig. Guinea pigs were anesthetized with pentobarbital. […] An EKG was continuously recorded. Conduction through the AV node was determined by measuring the PR interval on the surface EKG. […]"}, "serum protein [3]": {"system": "serum protein", "test": "Digitoxin serum protein binding by equilibrium dialysis", "assay_type": "in vitro ADME, patients", "protocol": "Digitoxin protein binding was dependent on albumin content. […] Chamber equilibrium dialysis gave similar results. […] (mean, 96.7%) and at 37° C. (mean, 96.9%). Digoxin isolates will be used under similar conditions."}, "serum protein [4]": {"system": "serum protein", "test": "Free fraction of digitoxin by centrifugation", "assay_type": "in vitro ADME", "protocol": "Free fraction of digitoxin increased with centrifugation time from 18% at 10 minutes to 37% at 80 minutes (500 g) without reaching plateau levels."}, "[5]": {"system": "digitoxin serum protein binding", "test": "In vitro drug studies: ability to induce changes in digitoxin serum protein binding", "conditions": "procainamide 5 mg/ml, phenytoin 50 mg/ml, heparin 5 IU/ml, rifampicillin 4.5 μg/ml", "protocol": "Digoxin isolates will be used under similar conditions.\nThe ability to induce changes in digitoxin serum protein binding was tested for the following drugs: procainamide (5 mg/ml), phenytoin (50 mg/ml), heparin (5 IU/ml), and rifampicillin (4.5 μg/ml). […] Identical procedures will be used for digoxin isolates."}}}
{"molecule": "CC1COc2c(N3CCN(C)CC3)c(F)cc3c(=O)c(C(=O)O)cn1c23", "note": "(single isomer, unassigned; (-)) [(−)-Ofloxacin]", "values": [{"measurement": "times more active as the racemate", "setting": "[1]", "result": "8-128 times"}]}
{"molecule": "CC1O[C@@H](O[C@H]2C(O)C[C@H](O[C@H]3C(O)C[C@H](OC4CC[C@@]5(C)[C@H](CC[C@@H]6[C@@H]5C[C@@H](O)[C@]5(C)[C@@H](C7=CC(=O)OC7)CC[C@]65O)C4)OC3C)OC2C)CC(O)[C@@H]1O", "note": "(stereo partly shown) [Digoxin]", "values": [{"measurement": "change in PR interval on the surface EKG", "setting": "[2]", "result": "progressive increase"}, {"measurement": "change in cardiac contractibility as measured by the strain-gauge arch", "setting": "[2]", "result": "increase"}]}
{"molecule": "C[C@H]1O[C@@H](O[C@H]2[C@@H](O)C[C@H](O[C@H]3[C@@H](O)C[C@H](O[C@H]4CC[C@@]5(C)[C@H](CC[C@@H]6[C@@H]5CC[C@]5(C)[C@@H](C7=CC(=O)OC7)CC[C@]65O)C4)O[C@@H]3C)O[C@@H]2C)C[C@H](O)[C@@H]1O", "note": "[digitoxin]", "values": [{"measurement": "digitoxin binding (mean)", "setting": "serum protein [3]; sera from 9 patients dialyzed at 20° C.", "result": 96.7, "unit": "%"}, {"measurement": "digitoxin binding (mean)", "setting": "serum protein [3]; sera from 9 patients dialyzed at 37° C.", "result": 96.9, "unit": "%"}, {"measurement": "free fraction", "setting": "serum protein [4]; centrifugation 10 minutes, 500 g", "result": 18, "unit": "%"}, {"measurement": "free fraction", "setting": "serum protein [4]; centrifugation 60 minutes, 135 g", "result": 5.9, "unit": "%"}, {"measurement": "free fraction", "setting": "serum protein [4]; centrifugation 60 minutes, 560 g", "result": 15.7, "unit": "%"}, {"measurement": "free fraction", "setting": "serum protein [4]; centrifugation 80 minutes, 500 g", "result": 37, "unit": "%"}]}
{"molecule": "O=C1NC(=O)C(c2ccccc2)(c2ccccc2)N1", "note": "[phenytoin]", "values": [{"measurement": "changes in the serum protein binding of digitoxin", "setting": "[5]", "result": "None of these induced significant changes"}]}
{"molecule": "CCN(CC)CCNC(=O)c1ccc(N)cc1", "note": "[procainamide]", "values": [{"measurement": "changes in the serum protein binding of digitoxin", "setting": "[5]", "result": "None of these induced significant changes"}]}
{"molecule": "heparin", "values": [{"measurement": "changes in the serum protein binding of digitoxin", "setting": "[5]", "result": "None of these induced significant changes"}]}
{"molecule": "rifampicillin", "values": [{"measurement": "changes in the serum protein binding of digitoxin", "setting": "[5]", "result": "None of these induced significant changes"}]}
